The source of these data is patent publication US9409952B2, “Peptide-compound cyclization method” (Chugai Seiyaku Kabushiki Kaisha, priority 2011, dated 2016).

The structures appear in SMILES notation. Starred links: 1 amine or outer side, 2 acyl side, 3 side chain; linkers in the order of their positions; H or OH if unused. Positions of bridges follow the written chain, without caps; N, C: chain ends. Non-standard residues stand in square brackets, D forms with d. Residues, ends and D or L forms follow the SMILES beside them. *: point of attachment. NMeF = CN[C@@H](Cc1ccccc1)C(=O)O; NMeβAla = CN(CCC(=O)[*:2])[*:1]; NMeL = CN[C@@H](CC(C)C)C(=O)O; NMeV = CN[C@H](C(=O)O)C(C)C; NMeA = CN[C@@H](C)C(=O)O; Piperidide = C1CCN(*)CC1; dNMeA = CN[C@H](C)C(=O)O; Sar = CNCC(=O)O

Data set [1] can be described thus: PAMPA (parallel artificial membrane permeability assay). To be noted: PAMPA; membrane permeation rate (Pe); 50 mM MOPSO buffer pH 6.5 with 5.0% glycocholic acid, 37° C., 18 hours; read-out: iPAMPA Pe. The class given is in vitro ADME. The method in brief: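 Artificial membrane was 10% (w/v) egg lecithin plus 0.5% (w/v) cholesterol in dodecane on a PVDF filter. A 10 mM DMSO stock was added at 0.5% (v/v) to donor buffer (50 mM MOPSO, pH 6.5, 5.0% glycocholic acid). After 18 h at 37 °C, LC/MS or LC/UV gave donor and acceptor levels for Pe.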
(The PAMPA barrier holds no transporters, so it reflects passive diffusion.)

Data set [2] in a line: Metabolic stability in human hepatic microsome. The class given is in vitro ADME. To be noted: microsomes, pH 7.4; human hepatic microsome, NADPH(+); read-out: CL NADPH(+).

On to `CC(C)C[C@H]1C(=O)N(C)[C@@H](C)C(=O)N(C)[C@@H](CC(C)C)C(=O)N[C@H](C(=O)N2CCCCC2)CC(=O)N(C)[C@@H](C)C(=O)N(C)[C@@H](Cc2ccccc2)C(=O)N[C@@H]([C@@H](C)O)C(=O)N(C)[C@@H](C)C(=O)N(C)[C@@H](CC(C)C)C(=O)NCC(=O)N1C` [DP-489] ([NMeA][NMeF]T[NMeA][NMeL]G[NMeL][NMeA][NMeL]D-Piperidide; lactam N-10), for which the Papp at 18 hours, 50 µM in data set [1] was 24 ×10⁻⁶ cm/s. Further, the microsomal CLint at 1 uM in data set [2] was 59 µL/min/mg.
Turning to `CC[C@H](C)[C@@H]1NC(=O)[C@H](CC(C)C)N(C)C(=O)[C@H](C)N(C)C(=O)[C@H]([C@@H](C)O)NC(=O)[C@H](C)N(C)C(=O)[C@H](C(C)C)N(C)C(=O)[C@H](Cc2ccccc2)NC(=O)CCN(C)C(=O)C[C@@H](C(=O)N(C)[C@@H](Cc2ccccc2)C(=O)N[C@@H](C)C(=O)N2CCCCC2)NC(=O)[C@H](C)N(C)C1=O` [DP-490] ([NMeβAla]F[NMeV][NMeA]T[NMeA][NMeL]I[NMeA]D[NMeF]A-Piperidide; lactam N-10), in data set [1], the Papp at 18 hours, 50 µM was 11 ×10⁻⁶ cm/s. In addition, in data set [2], the microsomal CLint at 1 uM is 27 µL/min/mg.
The like results for `CC[C@H](C)[C@@H]1NC(=O)[C@@H](C)NC(=O)C[C@@H](C(=O)N(C)[C@@H](Cc2ccccc2)C(=O)N[C@@H](C)C(=O)N2CCCCC2)NC(=O)[C@H](Cc2ccccc2)N(C)C(=O)[C@H](C)NC(=O)[C@H](CC(C)C)N(C)C(=O)[C@H](C)N(C)C(=O)[C@H]([C@@H](C)O)NC(=O)[C@H](C(C)C)N(C)C(=O)[C@H](C)N(C)C1=O` [DP-491] ([dA]I[NMeA][NMeV]T[NMeA][NMeL]A[NMeF]D[NMeF]A-Piperidide; lactam N-10) were, in that order, 18 ×10⁻⁶ cm/s and 39 µL/min/mg.
The like results for `CC[C@H](C)[C@@H]1NC(=O)[C@H](Cc2ccccc2)N(C)C(=O)[C@H](C)N(C)C(=O)[C@H]([C@@H](C)O)NC(=O)[C@H](CC(C)C)N(C)C(=O)[C@H](C)N(C)C(=O)C[C@@H](C(=O)N(C)[C@@H](Cc2ccccc2)C(=O)N[C@@H](C)C(=O)N2CCCCC2)NC(=O)[C@H](C(C)C)N(C)C(=O)[C@H](CC(C)C)N(C)C(=O)CN(C)C1=O` [DP-492] ([NMeA][NMeL]T[NMeA][NMeF]I[Sar][NMeL][NMeV]D[NMeF]A-Piperidide; lactam N-10) were, in that order, 20 ×10⁻⁶ cm/s and 61 µL/min/mg.
The like results for `CC(C)C[C@H]1C(=O)N(C)[C@@H](CC(C)C)C(=O)N(C)[C@@H](Cc2ccccc2)C(=O)N(C)[C@@H](CC(C)C)C(=O)N[C@H](C(=O)N(C)[C@@H](Cc2ccccc2)C(=O)N[C@@H](C)C(=O)N2CCCCC2)CC(=O)N(C)CC(=O)N[C@@H]([C@@H](C)O)C(=O)N(C)[C@@H](Cc2ccccc2)C(=O)N(C)[C@@H](CC(C)C)C(=O)N[C@@H](C)C(=O)N1C` [DP-493] ([Sar]T[NMeF][NMeL]A[NMeL][NMeL][NMeF][NMeL]D[NMeF]A-Piperidide; lactam N-10) were, in that order, 2.4 ×10⁻⁶ cm/s and 52 µL/min/mg.
On to `CC[C@H](C)[C@@H]1NC(=O)CCN(C)C(=O)C[C@@H](C(=O)N(C)[C@@H](Cc2ccccc2)C(=O)N(C)[C@@H](Cc2ccccc2)C(=O)N[C@@H](C)C(=O)N2CCCCC2)NC(=O)[C@H](C(C)C)N(C)C(=O)[C@H](C)NC(=O)[C@H](CC(C)C)N(C)C(=O)CN(C)C(=O)[C@H]([C@@H](C)O)NC(=O)[C@H](C)N(C)C(=O)[C@H](Cc2ccccc2)N(C)C1=O` [DP-495] ([NMeβAla]I[NMeF][NMeA]T[Sar][NMeL]A[NMeV]D[NMeF][NMeF]A-Piperidide; lactam N-10), for which, in data set [1], the Papp at 18 hours, 50 µM is 21 ×10⁻⁶ cm/s. Also, the microsomal CLint at 1 uM in data set [2] came to 7 µL/min/mg.
For the compound `CC[C@H](C)[C@@H]1NC(=O)[C@H](CC(C)C)N(C)C(=O)CCN(C)C(=O)C[C@@H](C(=O)N(C)[C@@H](Cc2ccccc2)C(=O)N(C)[C@@H](Cc2ccccc2)C(=O)N[C@@H](C)C(=O)N2CCCCC2)NC(=O)[C@H](C(C)C)N(C)C(=O)[C@H](CC(C)C)N(C)C(=O)CN(C)C(=O)[C@H]([C@@H](C)O)NC(=O)[C@H](Cc2ccccc2)NC(=O)[C@H](C(C)C)N(C)C1=O` [DP-496] ([NMeβAla][NMeL]I[NMeV]FT[Sar][NMeL][NMeV]D[NMeF][NMeF]A-Piperidide; lactam N-10), in data set [1], the Papp at 18 hours, 50 µM was found to be 23 ×10⁻⁶ cm/s. Moreover, in data set [2], the microsomal CLint at 1 uM was 13 µL/min/mg.
The like results for `CC(C)C[C@H]1C(=O)N(C)[C@@H](C(C)C)C(=O)N(C)[C@@H](C)C(=O)N[C@H](C(=O)N(C)[C@@H](Cc2ccccc2)C(=O)N(C)[C@@H](Cc2ccccc2)C(=O)N[C@@H](C)C(=O)N2CCCCC2)CC(=O)N(C)CCC(=O)N(C)CC(=O)N[C@@H]([C@@H](C)O)C(=O)N[C@@H](Cc2ccccc2)C(=O)N(C)[C@@H](C(C)C)C(=O)N[C@@H](C)C(=O)N1C` [DP-497] ([NMeβAla][Sar]TF[NMeV]A[NMeL][NMeV][NMeA]D[NMeF][NMeF]A-Piperidide; lactam N-10) were, in that order, 9.3 ×10⁻⁶ cm/s and 58 µL/min/mg.
The like results for `CC[C@H](C)[C@@H]1NC(=O)[C@H](Cc2ccccc2)N(C)C(=O)[C@H](C)N(C)C(=O)CN(C)C(=O)[C@H]([C@@H](C)O)NC(=O)[C@H](C)N(C)C(=O)[C@H](C(C)C)N(C)C(=O)[C@H](C)NC(=O)CCN(C)C(=O)C[C@@H](C(=O)N(C)[C@@H](Cc2ccccc2)C(=O)N(C)[C@@H](Cc2ccccc2)C(=O)N[C@@H](C)C(=O)N2CCCCC2)NC1=O` [DP-498] ([NMeβAla]A[NMeV][NMeA]T[Sar][NMeA][NMeF]ID[NMeF][NMeF]A-Piperidide; lactam N-10) were, in that order, 2.7 ×10⁻⁶ cm/s and 9 µL/min/mg.
The like results for `CC(C)C[C@H]1C(=O)N(C)[C@@H](C)C(=O)N[C@@H]([C@@H](C)O)C(=O)N(C)[C@@H](C)C(=O)N[C@H](C(=O)N(C)[C@@H](Cc2ccccc2)C(=O)N(C)[C@@H](Cc2ccccc2)C(=O)N[C@@H](C)C(=O)N2CCCCC2)CC(=O)N(C)CCC(=O)N(C)[C@@H](Cc2ccccc2)C(=O)N(C)[C@@H](CC(C)C)C(=O)N(C)[C@@H](C)C(=O)N[C@@H](C(C)C)C(=O)N1C` [DP-500] ([NMeβAla][NMeF][NMeL][NMeA]V[NMeL][NMeA]T[NMeA]D[NMeF][NMeF]A-Piperidide; lactam N-10) were, in that order, 27 ×10⁻⁶ cm/s and 28 µL/min/mg.
On to `CC(C)C[C@H]1C(=O)N(C)[C@@H](C(C)C)C(=O)N[C@@H](Cc2ccccc2)C(=O)N[C@H](C(=O)N(C)[C@@H](Cc2ccccc2)C(=O)N(C)[C@@H](Cc2ccccc2)C(=O)N[C@@H](C)C(=O)N2CCCCC2)CC(=O)N[C@H](C)C(=O)N[C@@H](C(C)C)C(=O)N(C)[C@@H](CC(C)C)C(=O)N[C@@H]([C@@H](C)O)C(=O)N(C)[C@@H](Cc2ccccc2)C(=O)NCC(=O)N1C` [DP-501] ([dA]V[NMeL]T[NMeF]G[NMeL][NMeV]FD[NMeF][NMeF]A-Piperidide; lactam N-10), for which the Papp at 18 hours, 50 µM in data set [1] was 0.23 ×10⁻⁶ cm/s. Besides, the microsomal CLint at 1 uM in data set [2] worked out at 7 µL/min/mg.
The like results for `CC[C@H](C)[C@@H]1NC(=O)[C@H](C)N(C)C(=O)[C@H](CC(C)C)N(C)C(=O)CN(C)C(=O)[C@H]([C@@H](C)O)NC(=O)[C@H](C(C)C)N(C)C(=O)[C@H](C)N(C)C(=O)[C@H](Cc2ccccc2)NC(=O)[C@@H](C)NC(=O)C[C@@H](C(=O)N(C)[C@@H](Cc2ccccc2)C(=O)N(C)[C@@H](Cc2ccccc2)C(=O)N[C@@H](C)C(=O)N2CCCCC2)NC1=O` [DP-502] ([dA]F[NMeA][NMeV]T[Sar][NMeL][NMeA]ID[NMeF][NMeF]A-Piperidide; lactam N-10) were, in that order, 17 ×10⁻⁶ cm/s and 19 µL/min/mg.
Regarding `CC(C)C[C@H]1C(=O)N[C@@H]([C@@H](C)O)C(=O)N(C)[C@@H](Cc2ccccc2)C(=O)N(C)[C@@H](CC(C)C)C(=O)NCC(=O)N(C)[C@@H](C(C)C)C(=O)N[C@@H](Cc2ccccc2)C(=O)N[C@H](C(=O)N(C)[C@@H](Cc2ccccc2)C(=O)N(C)[C@@H](Cc2ccccc2)C(=O)N[C@@H](C)C(=O)N2CCCCC2)CC(=O)N(C)[C@H](C)C(=O)N[C@@H](C(C)C)C(=O)N1C` [DP-503] ([dNMeA]V[NMeL]T[NMeF][NMeL]G[NMeV]FD[NMeF][NMeF]A-Piperidide; lactam N-10), the Papp at 18 hours, 50 µM in data set [1] amounted to 0.2 ×10⁻⁶ cm/s. For the same compound, in data set [2], the microsomal CLint at 1 uM stood at 43 µL/min/mg.
The like results for `CC(C)[C@@H]1NC(=O)[C@H](Cc2ccccc2)N(C)C(=O)[C@H](C)N(C)C(=O)[C@H]([C@@H](C)O)NC(=O)[C@H](C)N(C)C(=O)CNC(=O)[C@H](Cc2ccccc2)NC(=O)[C@@H](C)N(C)C(=O)C[C@@H](C(=O)N(C)[C@@H](Cc2ccccc2)C(=O)N(C)[C@@H](Cc2ccccc2)C(=O)N[C@@H](C)C(=O)N2CCCCC2)NC(=O)[C@H](C(C)C)N(C)C1=O` [DP-504] ([dNMeA]FG[NMeA]T[NMeA][NMeF]V[NMeV]D[NMeF][NMeF]A-Piperidide; lactam N-10) were, in that order, 31 ×10⁻⁶ cm/s and 216 µL/min/mg.
The like results for `CC(C)[C@@H]1NC(=O)[C@H](C)N(C)C(=O)CNC(=O)[C@H]([C@@H](C)O)NC(=O)[C@H](C(C)C)N(C)C(=O)[C@H](C)NC(=O)[C@@H](C)N(C)C(=O)C[C@@H](C(=O)N(C)[C@@H](Cc2ccccc2)C(=O)N(C)[C@@H](Cc2ccccc2)C(=O)N[C@@H](C)C(=O)N2CCCCC2)NC(=O)[C@H](Cc2ccccc2)N(C)C(=O)[C@H](C)N(C)C1=O` [DP-505] ([dNMeA]A[NMeV]TG[NMeA]V[NMeA][NMeF]D[NMeF][NMeF]A-Piperidide; lactam N-10) were, in that order, 6.8 ×10⁻⁶ cm/s and 18 µL/min/mg.
The like results for `CC[C@H](C)[C@@H]1NC(=O)[C@H](C)N(C)C(=O)[C@H](C)N(C)C(=O)[C@H]([C@@H](C)O)NC(=O)CN(C)C(=O)[C@H](C(C)C)N(C)C(=O)[C@H](CC(C)C)N(C)C(=O)[C@H](Cc2ccccc2)NC(=O)[C@@H](C)N(C)C(=O)C[C@@H](C(=O)N(C)[C@@H](Cc2ccccc2)C(=O)N(C)[C@@H](Cc2ccccc2)C(=O)N[C@@H](C)C(=O)N2CCCCC2)NC1=O` [DP-506] ([dNMeA]F[NMeL][NMeV][Sar]T[NMeA][NMeA]ID[NMeF][NMeF]A-Piperidide; lactam N-10) were, in that order, 20 ×10⁻⁶ cm/s and 14 µL/min/mg.
